Reference: PMC9504178 (Viruses, 2022)

Key:
NL09 and NL11 strains = format: cell-based, influenza A virus
[1] = system: A/Netherlands/602/09 (NL09); format: cell-based, influenza A virus
NL09 or NL11 strain = format: cell-based, influenza A virus
[2] = system: A/Netherlands/241/11 (NL11); format: cell-based, influenza A virus
NL09 and NL11 = format: cell-based, influenza A virus
NL09 or NL11 = format: cell-based, influenza A virus
NL09 = format: cell-based, influenza A virus
[3] = system: A(H1N1)pdm09 A/Netherlands/602/09 (NL09); format: cell-based, influenza A virus
c-Raf = details: cited from earlier work; for higher selectivity for c-Raf than vemurafenib: no reference given
B-Raf = details: no reference given; cited from earlier work
NL11 (H3N2) = format: cell-based, influenza A virus
[4] = system: human precision-cut lung slices (hPCLSs); assay: LDH-Glo cytotoxicity assay in hPCLSs; details: [10×]max: AF 50 μM, DA 100 μM, RG 25 μM; relative to Triton-X 100 positive control, 20% cut-off
[5] = system: IAV laboratory strains (PR8 and WSN) and pandemic H1N1 (CA09); design: method as in earlier work; details: A549 cells, AF 1μM, 15 hpi; cited from earlier work
IAV = details: single donor; cited from earlier work

Row | Compound | reduction of the titers of both viruses (NL09 and NL11 strains) | relative infectivity, NL09 [1] | effect on viral entry (NP staining) (NL09 or NL11 strain) | relative infectivity, NL11 [2] | highest viral titer reduction at MOI = 0.1 (NL09 and NL11) | time at which inhibition of virus replication in hPCLSs was observed (NL09 or NL11) | reduction in viral titers (NL09 and NL11 strains) | time dependence of effect on virus replication (NL09 and NL11) | effect on viral titers, NL11 compared with NL09 (NL09 and NL11 strains) | significance of viral titer reduction in infected hPCLSs (NL09 or NL11) | also measured
1 | Cc1cc(Nc2ncnc3ccc(NC4=NC(C)(C)CO4)cc23)ccc1Oc1ccn2ncnc2c1 [TU, tucatinib] | 10- to 30 fold | 86% | no obvious effects on viral entry | 100% | 10 fold | ≤ 12 hpi | – | – | – | – | –
2 | Cn1cc(-c2cc3c(N4CCN(c5ncc([C@@](C)(N)c6ccc(F)cc6)cn5)CC4)ncnn3c2)cn1 [AV, avapritinib] | 10- to 30 fold | 80% | no obvious effects on viral entry | 81% | 10 fold | ≤ 12 hpi | – | – | – | – | –
3 | CCOc1cc2ncc(C#N)c(Nc3ccc(OCc4ccccn4)c(Cl)c3)c2cc1NC(=O)/C=C/CN(C)C [NE, neratinib] | 10- to 30 fold | 70% | inhibited | 92% | 100 fold | ≤ 12 hpi | 40- to 50 fold | greater effect on virus replication at the early time points (24 hpi) | – | – | antiviral effect in hPCLSs compared to A549 cells (NL09 or NL11): more potent antiviral effect
4 | O=C(Nc1cnn2ccc(N3CCC[C@@H]3c3cc(F)ccc3F)nc12)N1CC[C@H](O)C1 [LA, larotrectinib] | 10- to 30 fold | 60% | no obvious effects on viral entry | 91% | 100 fold | ≥ 72 hpi | – | greater effect on virus replication at the early time points (24 hpi) | – | – | relative intracellular to extracellular (I/E) viral RNA Ct ratio (egress) (NL09): did not observe significant differences in any single step of viral replication; NL09 viral titer reduction [3]: ~ 9 fold
5 | CC(C)(C)c1nc(-c2cccc(NS(=O)(=O)c3c(F)cccc3F)c2F)c(-c2ccnc(N)n2)s1 [DA, dabrafenib] | – | 117% | inhibited | 126% | 100 fold | ≤ 12 hpi | 10- to 100 fold | – | significantly stronger in NL11-infected cells | consistently significant after 48 hpi | higher selectivity for c-Raf than vemurafenib (c-Raf): 10 fold; higher selectivity for B-Raf than vemurafenib (B-Raf): 10- to 100 fold
6 | CN(C)C/C=C/C(=O)Nc1cc2c(Nc3ccc(F)c(Cl)c3)ncnc2cc1O[C@H]1CCOC1 [AF, afatinib] | – | – | inhibited | 65% | 1000 fold | ≤ 12 hpi | 100- to 3000 fold | greater effect on virus replication at the early time points (24 hpi) | significantly stronger in NL11-infected cells | consistently significant after 48 hpi | % Luminescence (relative to untreated / normalized to GFP), NL11 infection (NL11 (H3N2)): 50%; cytotoxicity (LDH release) in hPCLSs at [10×]max [4]: > 20%; effect on viral replication [5]: 2- to 5 fold; relative cell viability over mock-infected treated controls (A549 cells): only marginally decreased the relative viability
7 | CNC(=O)c1cc(Oc2ccc(NC(=O)Nc3ccc(Cl)c(C(F)(F)F)c3)c(F)c2)ccn1 [RG, regorafenib] | – | 75% | inhibited | 80% | 10,000 fold | ≤ 12 hpi | 10- to 1000 fold | greater effect on virus replication at the early time points (24 hpi) | significantly stronger in NL11-infected cells | consistently significant after 48 hpi | selectivity for c-Raf relative to B-Raf (c-Raf): ~ 10 fold; higher selectivity for c-Raf than vemurafenib (c-Raf): 10 fold; antiviral effect in hPCLSs compared to A549 cells (NL09 or NL11): more potent antiviral effect; potency in primary bronchial cells vs A549 cells (IAV): less potent in primary bronchial cells than in A549 cells; higher selectivity for B-Raf than vemurafenib (B-Raf): 10- to 100 fold
